# In ChEMBL document CHEMBL1155247, “SAR and biological evaluation of SEN12333/WAY-317538: Novel alpha 7 nicotinic acetylcholine receptor agonist” (Bioorg Med Chem, 2009):
# Target: Neuronal acetylcholine receptor subunit alpha-7 (Rattus norvegicus) (UniProt Q05941)
# Test: Selectivity for rat alpha7 nAChR over human alpha3 nAChR
compound,measurement,value
Cl.O=C(CCCCN1CCOCC1)Nc1ccc(-c2cccnc2)cc1,Selectivity ratio,5.3
